Test results reported in ChEMBL document CHEMBL3046421, “Transition metals in organic synthesis - Part 83#: Synthesis and pharmacological potential of carbazoles” (Med Chem Res, 2008).
pIC50: −log10 of the molar value. Converted amounts (≈) assume the structure as drawn.

What was measured:
[1] = system: Mycobacterium tuberculosis; test: Antimycobacterial activity against Mycobacterium tuberculosis H37Rv by microplate alamar blue assay; format: functional
[2] = Selectivity index, ratio of IC50 for african green monkey Vero cells to MIC90 for Mycobacterium tuberculosis H37Rv; format: toxicity, cell-based; details: read-out: Selectivity Index
[3] = system: Vero; test: Cytotoxicity against Chlorocebus aethiops (African green monkey) Vero cells; format: cell-based; details: Chlorocebus sabaeus
[4] = system: Mycobacterium tuberculosis; test: Antimycobacterial activity against Mycobacterium tuberculosis H37Rv; format: functional
[5] = biological target: T1, Polyunsaturated fatty acid 5-lipoxygenase (Rattus norvegicus, UniProt P12527); test: Inhibition of Rattus norvegicus (rat) 5-lipoxygenase
T1 sequence (P12527 whole entry): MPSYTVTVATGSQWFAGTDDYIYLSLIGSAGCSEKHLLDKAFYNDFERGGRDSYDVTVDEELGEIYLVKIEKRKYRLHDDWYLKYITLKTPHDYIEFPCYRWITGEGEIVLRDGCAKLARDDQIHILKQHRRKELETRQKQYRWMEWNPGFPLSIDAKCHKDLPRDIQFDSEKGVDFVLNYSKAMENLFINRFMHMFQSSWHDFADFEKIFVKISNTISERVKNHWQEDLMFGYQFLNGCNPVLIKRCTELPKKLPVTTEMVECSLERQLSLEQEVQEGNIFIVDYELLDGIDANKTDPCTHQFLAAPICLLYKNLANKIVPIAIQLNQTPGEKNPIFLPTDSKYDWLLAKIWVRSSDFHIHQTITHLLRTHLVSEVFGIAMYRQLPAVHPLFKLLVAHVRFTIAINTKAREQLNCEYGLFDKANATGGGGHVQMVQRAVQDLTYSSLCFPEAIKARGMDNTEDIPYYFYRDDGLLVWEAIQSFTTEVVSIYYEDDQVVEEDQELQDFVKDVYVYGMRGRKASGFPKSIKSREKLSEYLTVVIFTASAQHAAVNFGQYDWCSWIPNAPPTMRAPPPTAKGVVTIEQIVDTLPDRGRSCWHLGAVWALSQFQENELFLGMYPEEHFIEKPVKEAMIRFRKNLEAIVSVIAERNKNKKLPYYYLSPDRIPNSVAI

[6] = system: Brain; test: Inhibition of free-radical-induced lipid peroxidation in Rattus norvegicus (rat) brain homogenates; format: functional, tissue-based
[7] = system: Mycobacterium tuberculosis; test: Antimycobacterial activity against Mycobacterium tuberculosis H37Ra; format: functional
[8] = system: Plasmodium falciparum; test: Antiplasmodial activity against Plasmodium falciparum; format: functional, organism-based

For `COc1ccc2[nH]c3ccc(C=O)cc3c2c1`, the MIC90 [1] was 99 µM (≈ 22.3 µg/mL), the selectivity ratio [2] was over 1.3 and the pIC50 [3] was under 3.89. The MIC90 [4] was 15.6 µg/mL (≈ 69.3 µM).

Work on `COC(=O)c1ccc2[nH]c3ccc(OC)cc3c2c1` yielded an MIC90 [1] of 32 µM (≈ 8.17 µg/mL), a selectivity ratio [2] of over 4 and a pIC50 [3] of under 3.89.

In the case of `COc1c(C)c(C[C@@H](C)OC(C)=O)c2[nH]c3ccc(Br)cc3c2c1OC(C)=O`, the MIC90 [1] was 55 µM (≈ 24.7 µg/mL), the selectivity ratio [2] was 0.5 and the pIC50 [3] was 4.60.

In the case of `COc1ccc2c(c1)[nH]c1cc(OC)c(C)cc12`, the MIC90 [1] was over 128 µM and the pIC50 [3] was under 3.89.

`Cc1c(O)cc2c([nH]c3c(O)ccc(CO)c32)c1C1OC1(C)CCC(C)C` (racemic) [RAC-EPOCARBAZOLIN A] gave a pIC50 [5] of 5.62.

`COC1=C(C)C(=O)c2[nH]c3ccccc3c2C1=O` [3-METHOXY-2-METHYLCARBAZOLE-1,4-QUINONE] gave an MIC90 [1] of 8 µM (≈ 1.93 µg/mL), a selectivity ratio [2] of over 16 and a pIC50 [3] of under 3.89.

For `COc1ccc2[nH]c3ccc(C=O)cc3c2c1Br` [5-BROMO-3-FORMYL-6-METHOXYCARBAZOLE], the MIC90 [1] was over 128 µM, the selectivity ratio [2] was under 0.6 and the pIC50 [3] was 4.11.

In the case of `COc1ccc2c(c1)[nH]c1ccc(C)cc12` [7-METHOXY-3-METHYLCARBAZOLE], the MIC90 [1] was over 128 µM.

For `COc1c(C)c(C[C@@H](C)O)c2[nH]c3ccc(CC=C(C)C)cc3c2c1O` [(R)-(-)-NEOCARAZOSTATIN B], the pIC50 [6] was 6.41.

For `COC(=O)c1ccc2[nH]c3cc(OC)ccc3c2c1` [CLAUSINE C], the MIC90 [1] was over 128 µM.

With `COc1ccc2c(c1)[nH]c1cc(OC)c(C(=O)O)cc12` [CLAUSINE K] the MIC90 [1] was over 128 µM, the selectivity ratio [2] was under 0.2 and the pIC50 [3] was 4.60. For the same compound, the MIC90 [7] was 100 µg/mL (≈ 369 µM).

With `COC(=O)c1ccc2[nH]c3cc(O)ccc3c2c1` [CLAUSINE M] the MIC90 [1] was 19 µM (≈ 4.58 µg/mL), the selectivity ratio [2] was 1.8 and the pIC50 [3] was 4.46.

`COc1ccc2c(c1)[nH]c1ccc(C(=O)O)cc12` [CLAUSINE N] gave an MIC90 [1] of over 128 µM.

With `O=Cc1cc2c(cc1O)[nH]c1cc(O)ccc12` [CLAUSINE O] the MIC90 [1] was 89 µM (≈ 20.2 µg/mL), the selectivity ratio [2] was 1.3 and the pIC50 [3] was 3.94.

For `COC(=O)c1cc2c(cc1OC)[nH]c1cc(OC)ccc12` [CLAUSZOLINE C], the IC50 [8] was 5.5 µg/mL (≈ 19.3 µM).

In the case of `COc1ccc2c(c1)[nH]c1ccc(C=O)cc12` [CLAUSZOLINE K], the MIC90 [1] was over 128 µM.

For `CC[C@H](C)CCC1(C)OC1c1c(C)c(O)cc2c1[nH]c1c(O)ccc(CO)c12` (stereo partly specified) [EPOCARBAZOLIN B], the pIC50 [5] was 5.59.

`Cc1ccc2[nH]c3ccc4occc4c3c2c1` [EUSTIFOLINE-D] gave an MIC90 [1] of over 128 µM and a pIC50 [3] of under 3.89.

For `COc1ccc2[nH]c3ccc(C)cc3c2c1` [GLYCOZOLINE], the MIC90 [1] was over 128 µM.

With `Cc1ccc2[nH]c3ccc(O)cc3c2c1` [GLYCOZOLININE] the MIC90 [1] was 123 µM (≈ 24.3 µg/mL), the selectivity ratio [2] was 0.5 and the pIC50 [3] was 4.24.

`NNC(=O)c1ccncc1` [ISONIAZID] showed an MIC90 [1] of 0.4 µM (≈ 0.0549 µg/mL), a selectivity ratio [2] of over 320 and a pIC50 [3] of under 3.89.

In the case of `COc1ccc2c(c1)[nH]c1cc(OC)c(C=O)cc12` [LANSINE], the MIC90 [1] was over 128 µM, the selectivity ratio [2] was under 0.8 and the pIC50 [3] was 4.02.

Compound `CC(C)=CCc1c(O)ccc2[nH]c3ccc(C=O)cc3c12` [MICROMELINE] has an MIC90 [1] of over 128 µM and an MIC90 [4] of 31.5 µg/mL (≈ 113 µM).

In the case of `CO[C@H]1/C=C/O[C@@]2(C)Oc3c(C)c(O)c4c(O)c(c(/C=N/N5CCN(C)CC5)c(O)c4c3C2=O)NC(=O)/C(C)=C\C=C\[C@H](C)[C@H](O)[C@@H](C)[C@@H](O)[C@@H](C)[C@H](OC(C)=O)[C@@H]1C` [RIFAMPIN], the MIC90 [1] was 0.09 µM (≈ 0.0741 µg/mL), the selectivity ratio [2] was 1170 and the pIC50 [3] was 3.98.

For `CC(C)=CCc1cc2c(cc1O)[nH]c1ccc(C)cc12` [SIAMENOL], the MIC90 [1] was 22 µM (≈ 5.84 µg/mL), the selectivity ratio [2] was 0.7 and the pIC50 [3] was 4.82.
